The series is described as follows: Solubility profile of ruxolitinib phosphate in buffer solutions at 37° C. The series is classed as physicochemical. An excerpt:
Development of stable and palatable oral solution formulation for ruxolitinib is challenging due to pH dependent solubility (see Table 2) of the drug substance with mainly oxidation degradation products at higher temperatures/moisture content and/or in presence of oxygen.

As a reminder, the solubility is how much of the substance goes into solution per volume. Read a low solubility as little dissolved substance.

Turning to `N#CC[C@H](C1CCCC1)n1cc(-c2ncnc3[nH]ccc23)cn1` [ruxolitinib phosphate], the solubility (aqueous buffer, Buffer solution pH 3.3) was at least 520 µg/mL; the solubility (aqueous buffer, Buffer solution pH 4.3) came to 350 µg/mL; the solubility (aqueous buffer, Buffer solution pH 5.3) was found to be 290 µg/mL; the solubility (aqueous buffer, Buffer solution pH 7.5) amounted to 150 µg/mL; the solubility (aqueous buffer, Buffer solution pH 8.0) was found to be 170 µg/mL; the solubility (simulated gastric fluid, Buffer solution pH 1.0) was at least 540 µg/mL.
